Data: ChEMBL document CHEMBL5029173, “Differential BET Bromodomain Inhibition by Dihydropteridinone and Pyrimidodiazepinone Kinase Inhibitors” (J Med Chem, 2021)
The source made the active and inactive calls. No cut-off for these calls is given here.

Assays:
[1] = biological target: Serine/threonine-protein kinase PLK1 (Homo sapiens) (UniProt P53350); conditions: MM1.S, dose 30-100 nM, time 6.0 hrs
HEK-293T = test: Inhibition of cell growth in HEK293T cells incubated for 72 hrs by CellTiter-blue reagent based assay; format: functional; conditions: Homo sapiens
[2] = biological target: T1, Bromodomain-containing protein 4 (Homo sapiens, UniProt O60885); test: Binding affinity to recombinant human N-terminal hexaHis-tagged BRD4 expressed in Escherichia coli BL21 (DE3) cells by ITC analysis
MM1.S = test: Inhibition of cell growth in human MM1.S cells incubated for 72 hrs by CellTiter-blue reagent based assay; format: functional
[3] = biological target: T2, Bromodomain testis-specific protein (Homo sapiens, UniProt Q58F21); test: Binding affinity to recombinant human N-terminal hexaHis-tagged BRDT expressed in Escherichia coli BL21 (DE3) cells by qPCR assay
[4] = biological target: T2, Bromodomain testis-specific protein
Description: Binding affinity to recombinant human N-terminal hexaHis-tagged BRDT expressed in Escherichia coli BL21 (DE3) cells assessed as change in melting temperature by DSF assay

[5] = biological target: T1, Bromodomain-containing protein 4; test: Binding affinity to recombinant human N-terminal hexaHis-tagged BRD4 expressed in Escherichia coli BL21 (DE3) cells by MST assay
[6] = biological target: T2, Bromodomain testis-specific protein; test: Binding affinity to recombinant human N-terminal hexaHis-tagged BRDT expressed in Escherichia coli BL21 (DE3) cells by ITC analysis
[7] = biological target: T1, Bromodomain-containing protein 4
Description: Binding affinity to recombinant human N-terminal hexaHis-tagged BRD4 expressed in Escherichia coli BL21 (DE3) cells assessed as change in melting temperature by DSF assay

[8] = biological target: T1, Bromodomain-containing protein 4; test: Binding affinity to recombinant human N-terminal hexaHis-tagged BRD4 expressed in Escherichia coli BL21 (DE3) cells by qPCR assay
[9] = biological target: T2, Bromodomain testis-specific protein; test: Binding affinity to recombinant human N-terminal hexaHis-tagged BRDT expressed in Escherichia coli BL21 (DE3) cells by MST assay

Sequence of Serine/threonine-protein kinase PLK1 (Homo sapiens) (P53350 whole entry): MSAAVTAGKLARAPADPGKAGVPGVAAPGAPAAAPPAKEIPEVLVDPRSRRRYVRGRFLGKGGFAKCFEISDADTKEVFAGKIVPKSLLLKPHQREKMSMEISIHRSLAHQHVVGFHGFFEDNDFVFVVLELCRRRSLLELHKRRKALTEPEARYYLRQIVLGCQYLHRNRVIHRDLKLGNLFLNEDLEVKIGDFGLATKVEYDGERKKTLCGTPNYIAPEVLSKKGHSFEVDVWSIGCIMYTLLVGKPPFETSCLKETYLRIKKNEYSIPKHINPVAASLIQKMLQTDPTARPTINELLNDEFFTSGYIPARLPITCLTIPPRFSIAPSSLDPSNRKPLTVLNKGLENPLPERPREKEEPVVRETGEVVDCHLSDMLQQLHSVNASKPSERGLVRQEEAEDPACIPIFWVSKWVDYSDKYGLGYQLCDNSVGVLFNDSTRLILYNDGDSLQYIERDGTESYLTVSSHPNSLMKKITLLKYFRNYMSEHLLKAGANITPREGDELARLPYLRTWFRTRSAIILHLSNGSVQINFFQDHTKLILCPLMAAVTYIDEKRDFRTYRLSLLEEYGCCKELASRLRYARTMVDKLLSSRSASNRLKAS

## C[C@@H](Oc1cc(-n2cnc3ccc(CN4CCN(C)CC4)cc32)sc1C(N)=O)c1ccccc1C(F)(F)F
[1]
  inhibition: Active

## CCOc1cc(C(=O)N2CCC(N3CCN(C)CC3)CC2)ccc1Nc1ncc2c(n1)N(C1CCCC1)c1ccccc1C(=O)N2C
HEK-293T
  IC50: > 10000 nM
[2]
  Kd: 213 nM
MM1.S
  IC50: 280 nM
[3]
  Kd: 500 nM
[4]
  ΔTm: 2.3 °C
[5]
  Kd: 205 nM
[6]
  Kd: 2100 nM
[7]
  ΔTm: 7.3 °C
[8]
  Kd: 69 nM
[9]
  Kd: 1600 nM

## COc1cc(C(=O)N2CCC(N3CCN(C)CC3)CC2)ccc1Nc1ncc2c(n1)N(C)c1ccccc1C(=O)N2C
HEK-293T
  IC50: 2800 nM
MM1.S
  IC50: 530 nM
[4]
  ΔTm: 3.8 °C
[1]
  inhibition: inactive

## CC[C@@H]1C(=O)N(C)c2cnc(Nc3ccc(C(=O)N[C@H]4CC[C@H](N5CCN(CC6CC6)CC5)CC4)cc3OC)nc2N1C(C)C [VOLASERTIB]
HEK-293T
  IC50: 1.1 nM
[2]
  Kd: 317 nM
MM1.S
  IC50: 4.5 nM
[3]
  Kd: 113 nM
[4]
  ΔTm: 5 °C
[5]
  Kd: 169 nM
[6]
  Kd: 1700 nM
[1]
  inhibition: Active
[8]
  Kd: 77 nM
[9]
  Kd: 1030 nM

## CCOc1cc(N2CCC(O)CC2)ccc1Nc1ncc2c(n1)N(C)c1ccccc1C(=O)N2C
HEK-293T
  IC50: > 10000 nM
[2]
  Kd: 735 nM
[3]
  Kd: 675 nM
[4]
  ΔTm: 2.9 °C
[5]
  Kd: 800 nM
[6]
  Kd: 4200 nM
[8]
  Kd: 205 nM
[9]
  Kd: 3500 nM

## Cc1cnc(Nc2ccc(C(=O)NC3CCN(C)CC3)c(F)c2)nc1Nc1ccc(Cl)c(NS(=O)(=O)C(C)(C)C)c1
HEK-293T
  IC50: 140 nM
[2]
  Kd: 54 nM
MM1.S
  IC50: 26 nM
[4]
  ΔTm: 11.9 °C
[6]
  Kd: 59 nM
[7]
  ΔTm: 13.5 °C
[8]
  Kd: 12 nM

## Cc1sc2c(c1C)C(c1ccc(Cl)cc1)=N[C@@H](CC(=O)OC(C)(C)C)c1nnc(C)n1-2
MM1.S
  IC50: 33 nM
[1]
  inhibition: inactive
